Values after ≈ are worked out from the molar mass of the structure shown.
Key:
[1] = tested on: Enterococcus faecalis 2041; assay: Broth micro-dilution MIC; format: cell-based; conditions: BHI medium
Protocol: (§1) The compounds of the present invention have in vitro activity against Gram-positive pathogenic bacteria. The antibacterial activity of the present compounds is illustrated in Tables III and IV. The minimal inhibitory concentrations (MICs) were determined using a standard broth micro-dilution assay. Table IV presents a comparison of the activity of illustrative compounds against representative vancomycin-resistant and vancomycin-sensitive enterococci (Enterococcus faecium and Enterococcus faecalis), mean geometric MIC (mcg/mL), as determined by the standard broth microdilution assay.
(§2) Assays for antimicrobial activity were performed using microbroth susceptibility testing methods as described by the NCCLS (National Committee for Clinical Laboratories Standards. 1990. Approved standard M7-A2. Methods for dilution antimicrobial susceptibility testing for bacteria that grow aerobically, 2 ed., Villanova Pa.). Brain-heart infusion medium (BHI) was used for testing of enterococci, and NCCLS recommendations for medium were followed for other bacteria.

Escherichia coli EC14 = assay: Broth micro-dilution MIC; format: cell-based
Protocol: as §1, §2

[2] = tested on: Enterococcus faecalis 276; assay: Broth micro-dilution MIC; format: cell-based; conditions: BHI medium
Protocol: as §1, §2

[3] = tested on: Staphylococcus aureus S13E; assay: Broth micro-dilution MIC; format: cell-based
Protocol: as §1, §2

[4] = tested on: Staphylococcus aureus SA1199B; assay: Broth micro-dilution MIC; format: cell-based
Protocol: as §1, §2

[5] = tested on: Staphylococcus haemolyticus 415; assay: Broth micro-dilution MIC; format: cell-based
Protocol: as §1, §2

[6] = tested on: Staphylococcus aureus 447; assay: Broth micro-dilution MIC; format: cell-based
Protocol: as §1, §2

Enterococcus faecium 180 = assay: Broth micro-dilution MIC; format: cell-based; conditions: BHI medium
Protocol: as §1, §2

[7] = tested on: Staphylococcus aureus 446; assay: Broth micro-dilution MIC; format: cell-based
Protocol: as §1, §2

[8] = tested on: Streptococcus pyogenes C203; assay: Broth micro-dilution MIC; format: cell-based
Protocol: as §1, §2

[9] = tested on: Enterococcus faecium 180-1; assay: Broth micro-dilution MIC; format: cell-based; conditions: BHI medium
Protocol: as §1, §2

[10] = tested on: Staphylococcus aureus 489; assay: Broth micro-dilution MIC; format: cell-based
Protocol: as §1, §2

[11] = tested on: Streptococcus pneumoniae P1; assay: Broth micro-dilution MIC; format: cell-based
Protocol: as §1, §2

[12] = tested on: Staphylococcus aureus X400; assay: Broth micro-dilution MIC; format: cell-based
Protocol: as §1, §2

[13] = tested on: Staphylococcus aureus SA1199A; assay: Broth micro-dilution MIC; format: cell-based
Protocol: as §1, §2

[14] = tested on: Enterococcus gallinarum 245; assay: Broth micro-dilution MIC; format: cell-based; conditions: BHI medium
Protocol: as §1, §2

[15] = tested on: Staphylococcus aureus 491; assay: Broth micro-dilution MIC; format: cell-based
Protocol: as §1, §2

[16] = tested on: Staphylococcus epidermidis 270; assay: Broth micro-dilution MIC; format: cell-based
Protocol: as §1, §2

[17] = tested on: Staphylococcus aureus SA1199; assay: Broth micro-dilution MIC; format: cell-based
Protocol: as §1, §2

[18] = tested on: Staphylococcus aureus X778; assay: Broth micro-dilution MIC; format: cell-based
Protocol: as §1, §2

[19] = tested on: Haemophilus influenzae RD; assay: Broth micro-dilution MIC; format: cell-based
Protocol: as §1, §2

[20] = tested on: Staphylococcus haemolyticus 105; assay: Broth micro-dilution MIC; format: cell-based
Protocol: as §1, §2

[21] = tested on: vancomycin-resistant enterococci; assay: In vitro activity against enterococci, broth microdilution; format: cell-based, Enterococcus faecium and Enterococcus faecalis; conditions: representative vancomycin-resistant enterococci (E. faecium and E. faecalis); BHI medium
Protocol: as §1, §2

[22] = tested on: vancomycin-sensitive enterococci; assay: as above; format: cell-based, Enterococcus faecium and Enterococcus faecalis; conditions: representative vancomycin-sensitive enterococci (E. faecium and E. faecalis); BHI medium
Protocol: as §1, §2

## CNC(CC(C)C)C(=O)NC1C(=O)NC(CC(N)=O)C(=O)NC2C(=O)NC3C(=O)NC(C(=O)NC(C(=O)O)c4cc(O)cc(O)c4-c4cc3ccc4O)C(OC3CC(C)(N)C(O)C(C)O3)c3ccc(c(Cl)c3)Oc3cc2cc(c3OC2OC(CO)C(O)C(O)C2OC2CC(C)(NC(=O)c3ccc(-c4ccccc4)cc3)C(O)C(C)O2)Oc2ccc(cc2Cl)C1O (stereo not drawn) [Example 1]
[1]
  MIC: 0.125 µg/mL (≈ 0.0705 µM)
Escherichia coli EC14
  MIC: >64 µg/mL
[2]
  MIC: 0.5 µg/mL (≈ 0.282 µM)
[3]
  MIC: 2 µg/mL (≈ 1.13 µM)
[4]
  MIC: 2 µg/mL (≈ 1.13 µM)
[5]
  MIC: 8 µg/mL (≈ 4.51 µM)
[6]
  MIC: 16 µg/mL (≈ 9.03 µM)
Enterococcus faecium 180
  MIC: 0.25 µg/mL (≈ 0.141 µM)
[7]
  MIC: 2 µg/mL (≈ 1.13 µM)
[8]
  MIC: ≦.06 μg/ml
[9]
  MIC: ≦.06 μg/ml
[10]
  MIC: 0.5 µg/mL (≈ 0.282 µM)
[11]
  MIC: ≦.06 μg/ml
[12]
  MIC: 1 µg/mL (≈ 0.564 µM)
[13]
  MIC: 0.125 µg/mL (≈ 0.0705 µM)
[14]
  MIC: 8 µg/mL (≈ 4.51 µM)
[15]
  MIC: 0.25 µg/mL (≈ 0.141 µM)
[16]
  MIC: 16 µg/mL (≈ 9.03 µM)
[17]
  MIC: 2 µg/mL (≈ 1.13 µM)
[18]
  MIC: 1 µg/mL (≈ 0.564 µM)
[19]
  MIC: >64 µg/mL
[20]
  MIC: 1 µg/mL (≈ 0.564 µM)
[21]
  Mean geometric MIC, Vancomycin Resistant Strains: 11.3 µg/mL
[22]
  Mean geometric MIC, Vancomycin Sensitive Strains: 0.38 µg/mL
